# Laboratory results reported in patent US20220380371A1, “MLL1 INHIBITORS AND ANTI-CANCER AGENTS” (NOVARTIS AG, priority 2019, published 2022).
# Read-outs that look alike come from different tables or passages of the source.
# Legend:
# [1] = target: wild type MLL1 five-member complex (MLL1-5C) (Homo sapiens, UniProt Q03164); experiment: MLL1 Flashplate Assay; type: biochemical; details: read-out: MLL1 flash plate
# Method: MLL1 Flashplate Assay To assess the compound potency in MLL1 Flashplate assay, compounds were serially diluted 3-fold in DMSO to obtain a total of twelve concentrations. Then the test compounds at each concentration (250 nL of each) were transferred by Mosquito into Corning #3675 384-well plate. Solutions (15 μL) of 4.2 nM wild type MLL1 five-member complex (MLL1-5C) in the assay buffer (20 mM Tris-HCl, pH 8.0, 0.01% Tween 20, 1 mM DTT, 0.01% BSA) were added to the wells. A 10 μL solution of 2.5 μM of the peptide substrate H3K4me0 (histone H3[1-21]-Biotin) and 1.25 μM ^3H-SAM in the reaction buffer was then added to initiate each reaction. The final components in the reaction solution include 2.5 nM MLL1-5C, 0.5 μM ^3H-SAM, and 1 μM H3K4me0 with varying concentration of the compounds. A positive control consisted of 2.5 nM MLL1-5C, 0.5 μM ^3H-SAM, and 1 μM substrate in the absence of the test compound, and a negative control consisted of 0.5 μM ^3H-SAM, and 1 μM substrate only. Each reaction was incubated at rt for 90 min, then stopped by addition of 5 μL per of quench solution (0.5 mM SAM in assay buffer). 25 μL of each reaction solution was transferred to FlashPlate streptavidin 384-well microplate (PerkinElmer). After at least 1 h incubation at rt, the wells were washed three times with 0.1% Tween-20 in dH2O using the BioTek plate washer. The plates were then read in MicroBeta (PerkinElmer). The radioactive readouts were then normalized based on the values coming from the positive and negative controls to give percent enzyme activities. The data were then fit to a dose response equation using the program Helios to get the IC50 values of the test compounds.
# [2] = target: wild type MLL1 four-member complex (MLL1-4C) (Homo sapiens, UniProt Q03164); experiment: MLL1 LC-MS Assay; type: biochemical
# Procedure, shortened: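 Compound pre-incubated 20 min with MLL1-4C and SAM, then H3[1-21]-biotin (H3K4me0) substrate added; final 30 nM enzyme, 2.5 μM SAM, 10 μM peptide in Tris pH 8.0 with MgCl2, DTT, Tween 20, BSA. After 120 min at rt, TFA-quenched SAH quantified by LC-MS/MS with d4-SAH; IC50 from dose-response fit.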
# MV4-11 cells = experiment: MV4-11 6-Day Cell Growth CTG (CellTiter-Glo) Assay; type: cell-based; details: MV4-11 cell growth CellTiter-Glo, 6 days
# Procedure, shortened: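 MV4-11 AML cells (RPMI 1640, 10% FBS) seeded at 300 cells/well and exposed for 6 days at 37 °C to a 12-point, 1:3 compound series starting at 50 μM final. Viable cells read by CellTiter-Glo luminescence; percent inhibition versus DMSO-only wells fitted to dose-response curves for IC50.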
# H3K4me3 in MV4-11 cells = experiment: MV4-11 H3K4me3 Cellular ELISA Assay; type: cell-based
# Procedure, shortened: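 MV4-11 cells were treated for 48 h with 12-point 1:3 compound dilutions (from 10 mM stock), then histones were acid-extracted with 0.5M HCl and neutralized. H3K4me3 and total H3 were measured by HRP chemiluminescent ELISA, and inhibition versus DMSO after H3 normalization was curve-fitted for IC50.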
SMILES,IC50 [1],IC50 ([2]; read-out: LCMS),"IC50 (MV4-11 cells; Homo sapiens, MV4-11, 144 h)","IC50 (H3K4me3 in MV4-11 cells; Homo sapiens, MV4-11, 48 h)",IC50 ([2]; read-out: MLL1 LCMS),IC50 (MV4-11 cells),IC50 (H3K4me3 in MV4-11 cells; 48 hours)
Nc1ncnc2c1ncn2Cc1c(N2CC[C@](N)(C(=O)NC3CC3)C2)ccc(F)c1CN1CC(F)(F)C1 [Example 52],0.06 to 0.1 µM,0.05 to 0.1 µM,< 2 µM,< 1.9 µM,–,–,–
Nc1ncnc2c1ncn2Cc1c(N2CC[C@](N)(C(=O)NC3CC3)C2)ccc(F)c1CN1CCC1 [Example 70],> 0.1 µM,0.05 to 0.1 µM,< 2 µM,< 1.9 µM,–,–,–
Nc1ncnc2c1ncn2Cc1c(N2CC[C@](N)(C(=O)N[C@H]3C[C@@H]3c3ccccc3)C2)ccc(F)c1CN1CCOCC1 [Example 51],< 0.06 µM,< 0.05 µM,< 2 µM,< 1.9 µM,–,–,–
CCc1c(Cl)ccc(N2CC[C@](N)(C(=O)N3CCS(=O)(=O)CC3)C2)c1Cn1cnc2c(N)ncnc21 [Example 155],> 0.1 µM,–,< 2 µM,< 1.9 µM,> 0.1 µM,–,–
CC(C)(C#N)CNC(=O)[C@@]1(N)CCN(c2ccc(F)c(C(F)(F)F)c2Cn2cnc3c(N)ncnc32)C1 [Example 125],< 0.06 µM,< 0.05 µM,< 2 µM,< 1.9 µM,–,–,–
Nc1ncnc2c1ncn2Cc1c(N2CC[C@](N)(c3ccccn3)C2)ccc(F)c1C(F)(F)F [Example 23],< 0.06 µM,< 0.05 µM,< 2 µM,< 1.9 µM,–,–,–
Nc1ncnc2c1ncn2Cc1c(N2CCC(N)(c3ccccn3)C2)ccc(F)c1C(F)(F)F (centres unmarked) [Example 22],0.06 to 0.1 µM,0.05 to 0.1 µM,< 2 µM,< 1.9 µM,–,–,–
Nc1ncnc2c1ncn2Cc1c(N2CC[C@](N)(C(=O)NC3CC3)C2)ccc(C(F)(F)F)c1CN1CCC1 [Example 62],< 0.06 µM,< 0.05 µM,< 2 µM,< 1.9 µM,–,–,–
"Nc1ncnc2c1ncn2Cc1c(Br)cc(Cl)cc1N1CC[C@](N)(c2nc[nH]n2)C1 [Example 18, (R)-9-(2-(3-amino-3-(1H-1,2,4-triazol-3-yl)pyrrolidin-1-yl)-6-bromo-4-chlorobenzyl)-9H-purin-6-amine]",< 0.06 µM,< 0.05 µM,< 2 µM,< 1.9 µM,–,–,–
CCc1c(Cl)ccc(N2CC[C@](N)(C(=O)NC3CCS(=O)(=O)CC3)C2)c1Cn1cnc2c(N)ncnc21 [Example 153],0.06 to 0.1 µM,–,< 2 µM,< 1.9 µM,< 0.05 µM,–,–
Nc1ncnc2c1ncn2Cc1c(Cl)c(Cl)cc(F)c1N1CCC(N)(C(=O)NC2CC2)C1 (centres unmarked) [Example 152],< 0.06 µM,–,< 2 µM,< 1.9 µM,> 0.1 µM,–,–
"CN(C)Cc1c(F)ccc(N2CC[C@](N)(C(=O)NC3CC3)C2)c1Cn1cnc2c(N)ncnc21 [Example 45, (R)-3-amino-1-(2-((6-amino-9H-purin-9-yl)methyl)-3-((dimethylamino)methyl)-4-fluorophenyl)-N-cyclopropylpyrrolidine-3-carboxamide]",> 0.1 µM,0.05 to 0.1 µM,< 2 µM,< 1.9 µM,–,–,–
CCc1cc(-c2cccs2)cc(N2CC[C@](N)(C(=O)NC3CC3)C2)c1Cn1cnc2c(N)ncnc21 [Example 93],< 0.06 µM,< 0.05 µM,< 2 µM,< 1.9 µM,–,–,–
Nc1ncnc2c1ncn2Cc1c(Br)cc(Cl)cc1N1CC[C@](N)(CO)C1 (stereo in doubt) [Example 107],> 0.1 µM,> 0.1 µM,–,–,–,< 2 µM,> 3 µM
Nc1ncnc2c1ncn2Cc1c(N2CC[C@](N)(C(=O)Nc3cc(C4CC4)n[nH]3)C2)ccc(F)c1C(F)(F)F [Example 123],< 0.06 µM,> 0.1 µM,< 2 µM,< 1.9 µM,–,–,–
Nc1ncnc2c1ncn2Cc1c(Br)ccc(Cl)c1N1CC[C@@](N)(C(=O)O)C1 [Example 142],< 0.06 µM,–,> 3 µM,< 1.9 µM,< 0.05 µM,–,–
NC(=O)[C@@]1(N)CCN(c2cc(Cl)cc(Br)c2Cn2cnc3c(N)ncnc32)C1 [Example 148],< 0.06 µM,–,< 2 µM,< 1.9 µM,< 0.05 µM,–,–
CCc1ccc(Cl)c(N2CC[C@](N)(C(=O)NC3CC3)C2)c1Cn1cnc2c(N)ncnc21 [Example 154],> 0.1 µM,–,< 2 µM,< 1.9 µM,< 0.05 µM,–,–
Nc1ncnc2c1ncn2Cc1c(N2CC[C@](N)(C(=O)NCc3cccnn3)C2)ccc(F)c1C(F)(F)F [Example 118],< 0.06 µM,0.05 to 0.1 µM,< 2 µM,< 1.9 µM,–,–,–
Nc1ncnc2c1ncn2Cc1c(N2CC[C@](N)(C(=O)NC3CC3)C2)ccc(Br)c1C(F)(F)F [Example 146],< 0.06 µM,–,< 2 µM,< 1.9 µM,< 0.05 µM,–,–
"Nc1ncnc2c1ncn2Cc1c(N2CC[C@](N)(C(=O)NC3CC3)C2)ccc(F)c1C(F)(F)F [Example 116, (R)-3-amino-1-(2-((6-amino-9H-purin-9-yl)methyl)-4-fluoro-3-(trifluoromethyl)phenyl)-N-cyclopropylpyrrolidine-3-carboxamide]",< 0.06 µM,< 0.05 µM,< 2 µM,< 1.9 µM,–,–,–
N#CCC1CCN(C(=O)[C@@]2(N)CCN(c3ccc(F)c(C(F)(F)F)c3Cn3cnc4c(N)ncnc43)C2)CC1 [Example 119],< 0.06 µM,0.05 to 0.1 µM,< 2 µM,< 1.9 µM,–,–,–

# Further lines, results first:
IC50 [1],IC50 ([2]; read-out: LCMS),"IC50 (MV4-11 cells; Homo sapiens, MV4-11, 144 h)","IC50 (H3K4me3 in MV4-11 cells; Homo sapiens, MV4-11, 48 h)",IC50 ([2]; read-out: MLL1 LCMS),IC50 (MV4-11 cells),IC50 (H3K4me3 in MV4-11 cells; 48 hours),SMILES
< 0.06 µM,0.05 to 0.1 µM,< 2 µM,< 1.9 µM,–,–,–,C[C@@H]1CN(C(=O)[C@@]2(N)CCN(c3ccc(F)c(C(F)(F)F)c3Cn3cnc4c(N)ncnc43)C2)CCO1 [Example 135]
< 0.06 µM,0.05 to 0.1 µM,< 2 µM,< 1.9 µM,–,–,–,Nc1ncnc2c1ncn2Cc1c(N2CC[C@](N)(C(=O)N3CCC[C@@H](O)C3)C2)ccc(F)c1C(F)(F)F [Example 138]
< 0.06 µM,< 0.05 µM,< 2 µM,< 1.9 µM,–,–,–,Nc1ncnc2c1ncn2Cc1c(N2CC[C@](N)(c3nc[nH]n3)C2)ccc(Cl)c1Cl [Example 85]
< 0.06 µM,< 0.05 µM,2 to 3 µM,< 1.9 µM,–,–,–,"Nc1ncnc2c1ncn2Cc1c(Br)cc(Cl)cc1N1CC[C@](N)(C(=O)NC2CC2)C1 [Example 1, (R)-3-amino-1-(2-((6-amino-9H-purin-9-yl)methyl)-3-bromo-5-chlorophenyl)-N-cyclopropylpyrrolidine-3-carboxamide]"
< 0.06 µM,0.05 to 0.1 µM,< 2 µM,< 1.9 µM,–,–,–,Nc1ncnc2c1ncn2Cc1c(N2CC[C@](N)(C(=O)NC3CC3)C2)ccc2ccoc12 [Example 112]
< 0.06 µM,–,< 2 µM,< 1.9 µM,< 0.05 µM,–,–,Nc1ncnc2c1ncn2Cc1c(N2CC[C@](N)(C(=O)NC3CC3)C2)ccc(OC(F)(F)F)c1Br [Example 147]
< 0.06 µM,< 0.05 µM,< 2 µM,< 1.9 µM,–,–,–,C=CC(=O)N1CCN(C(=O)[C@@]2(N)CCN(c3ccc(F)c(CC)c3Cn3cnc4c(N)ncnc43)C2)CC1 [Example 17]
< 0.06 µM,< 0.05 µM,< 2 µM,< 1.9 µM,–,–,–,Nc1ncnc2c1ncn2Cc1c(N2CC[C@](N)(C(=O)NC3CC3)C2)ccc(Cl)c1COC(F)F [Example 86]
< 0.06 µM,< 0.05 µM,> 3 µM,1.9 to 3 µM,–,–,–,CCc1cc(-c2cnn(C)c2)cc(N2CC[C@](N)(C(=O)NC3CC3)C2)c1Cn1cnc2c(N)ncnc21 [Example 96]
< 0.06 µM,< 0.05 µM,< 2 µM,< 1.9 µM,–,–,–,"CCc1cc(-c2ccccn2)cc(N2CC[C@](N)(C(=O)NC3CC3)C2)c1Cn1cnc2c(N)ncnc21 [Example 99, (R)-3-amino-1-(2-((6-amino-9H-purin-9-yl)methyl)-3-ethyl-5-(pyridin-2-yl)phenyl)-N-cyclopropylpyrrolidine-3-carboxamide]"
